The source made the active and inactive calls. The rule behind the calls is not given here.

For series [1], the system named is Saccharomyces cerevisiae. As to the kind of experiment: Growth restoration activity in cdc2-1 rad9-deficient Saccharomyces cerevisiae assessed as growth zone at 10 ug/disc incubated at 37 degC for 6 hrs and 28 degC for 2 days. Format: functional.
Series [2] concerns Saccharomyces cerevisiae. As to the kind of experiment: Growth restoration activity in cdc2-1 rad9-deficient Saccharomyces cerevisiae assessed as growth zone at 0.05 ug/disc incubated at 37 degC for 6 hrs and 28 degC for 2 days. The class given is functional.
Series [3] has as its system HL-60. As to the kind of experiment: Cytotoxicity against human HL60 cells at 80 uM after 48 hrs by MTT assay. Format: functional, cell-based.
The subject of series [4] is Saccharomyces cerevisiae. As to the kind of experiment: Growth restoration activity in cdc2-1 rad9-deficient Saccharomyces cerevisiae assessed as growth zone at 5 ug/disc incubated at 37 degC for 6 hrs and 28 degC for 2 days. Format: functional, organism-based.
The nature of series [5]: Growth inhibition of human HBC4 cells. The class given is functional.
Series [6] has as its system HL-60. Kind of series: Induction of apoptosis in human HL60 cells assessed as caspase 3/7 activation at 1 uM after 12 hrs by spectrophotometric analysis. Format: functional, cell-based.
The next series concerns OVCAR-8. Kind of series: Growth inhibition of human OVCAR8 cells. Format: functional.
The subject of the next series is OVCAR-5. Kind of series: Growth inhibition of human OVCAR5 cells. Format: functional.
In the next series the test system is NCI-H23. Kind of series: Growth inhibition of human NCI-H23 cells. Format: functional.
The test system of a further series is NCI-H226. Kind of series: Growth inhibition of human NCI-H226 cells. Format: functional.
A further series has as its system SNB-75. Kind of series: Growth inhibition of human SNB75 cells. The class given is functional.
For a further series, the system named is LOX IMVI. Kind of series: Growth inhibition of human LOXIMVI cells. The class given is functional.
For the next series, the system named is MKN-45. Kind of series: Growth inhibition of human MKN45 cells. Format: functional.
Series [7] deals with HL-60. As to the kind of experiment: Induction of apoptosis in human HL60 cells assessed as caspase 9 activation at 1 uM after 12 hrs by spectrophotometric analysis. Format: functional, cell-based.
Series [8] deals with HL-60. As to the kind of experiment: Ratio of IC50 for human HL60 cells in presence of DFOM to IC50 for human HL60 cells in absence of DFOM. Format: functional.
Another series concerns MKN-74. As to the kind of experiment: Growth inhibition of human MKN74 cells. Format: functional.
Series [9] deals with HL-60. As to the kind of experiment: Induction of apoptosis in human HL60 cells assessed as caspase 9 activation after 1 to 3 hrs by spectrophotometric analysis. Format: functional, cell-based.
The subject of series [10] is Saccharomyces cerevisiae. As to the kind of experiment: Growth restoration activity in cdc2-1 rad9-deficient Saccharomyces cerevisiae assessed as growth zone at 12.5 to 400 ug/disc incubated at 37 degC for 6 hrs and 28 degC for 2 days. The class given is functional, organism-based.
For a further series, the system named is A549. Kind of series: Growth inhibition of human A549 cells. Format: functional.
For the next series, the system named is SNB-78. Kind of series: Growth inhibition of human SNB78 cells. The class given is functional.
A further series relates to SF-539. As to the kind of experiment: Growth inhibition of human SF539 cells. The class given is functional.
The test system of a further series is KM12. Kind of series: Growth inhibition of human KM12 cells. The class given is functional.
The next series relates to St-4. As to the kind of experiment: Growth inhibition of human St-4 cells. Format: functional.
Series [11] in a line: Growth inhibition of human HBC5 cells. Format: functional.
For a further series, the system named is SF-268. Kind of series: Growth inhibition of human SF268 cells. Format: functional.
The test system of a further series is OVCAR-4. Kind of series: Growth inhibition of human OVCAR4 cells. Format: functional.
For series [12], the system named is HL-60. As to the kind of experiment: Cytotoxicity against human HL60 cells after 48 hrs by MTT assay in absence of DFOM. Format: functional, cell-based. The conditions noted are these: HL-60, 48 h. In general terms: Tetrazolium dyes change colour on reduction, which living cells bring about.
A further series has as its system MCF7. Kind of series: Growth inhibition of human MCF7 cells. The class given is functional.
Series [13] deals with HL-60. Kind of series: Induction of apoptosis in human HL60 cells assessed as caspase 8 activation after 1 to 3 hrs by spectrophotometric analysis. The class given is functional, cell-based.
Another series relates to HCT-15. As to the kind of experiment: Growth inhibition of human HCT15 cells. The class given is functional.
For another series, the system named is PC-3. Kind of series: Growth inhibition of human PC3 cells. The class given is functional.
Another series has as its system MKN-7. As to the kind of experiment: Growth inhibition of human MKN7 cells. The class given is functional.
The test system of a further series is SF-295. Kind of series: Growth inhibition of human SF295 cells. The class given is functional.
The test system of a further series is SK-OV-3. As to the kind of experiment: Growth inhibition of human SKOV3 cells. The class given is functional.
Another series relates to HT-29. As to the kind of experiment: Growth inhibition of human HT-29 cells. Format: functional.
The test system of the next series is DU-145. As to the kind of experiment: Growth inhibition of human DU145 cells. Format: functional.
A further series relates to OVCAR-3. As to the kind of experiment: Growth inhibition of human OVCAR3 cells. Format: functional.
Series [14] can be described thus: Growth inhibition of human MKN1 cells. The class given is functional. Conditions: MKN-1.
Series [15] concerns Saccharomyces cerevisiae. Kind of series: Growth restoration activity in cdc2-1 rad9-deficient Saccharomyces cerevisiae assessed as growth zone at 400 ug/disc. The class given is functional, organism-based.
For another series, the system named is HCT-116. Kind of series: Growth inhibition of human HCT116 cells. Format: functional.
For another series, the system named is NCI-H460. Kind of series: Growth inhibition of human NCI-H460 cells. The class given is functional.
In a further series the test system is U-251. As to the kind of experiment: Growth inhibition of human U251 cells. Format: functional.
In a further series the test system is NCI-H522. As to the kind of experiment: Growth inhibition of human NCI-H522 cells. Format: functional.
Another series concerns MKN-28. As to the kind of experiment: Growth inhibition of human MKN28 cells. Format: functional.
Series [16] has as its system HL-60. As to the kind of experiment: Cytotoxicity against human HL60 cells after 48 hrs by MTT assay in presence of DFOM. The class given is functional, cell-based. Conditions: HL-60, 48 h.
The subject of series [17] is HL-60. As to the kind of experiment: Induction of apoptosis in human HL60 cells assessed as caspase 8 activation at 1 uM after 12 hrs by spectrophotometric analysis. The class given is functional, cell-based.
Another series concerns ACHN. Kind of series: Growth inhibition of human ACHN cells. Format: functional.
The nature of series [18]: Growth inhibition of human BSY1 cells. The class given is functional. Conditions: BSY-1.
Series [19] in a line: Growth inhibition of human RXF631L cells. The class given is functional. The conditions noted are these: RXF 631.
The subject of another series is HCC 2998. As to the kind of experiment: Growth inhibition of human HCC2998 cells. The class given is functional.
The subject of series [20] is HL-60. Kind of series: Induction of apoptosis in human HL60 cells assessed as caspase 3/7 activation after 1 to 3 hrs by spectrophotometric analysis. The class given is functional, cell-based.
The next series relates to DMS-114. As to the kind of experiment: Growth inhibition of human DMS114 cells. The class given is functional.
For another series, the system named is DMS-273. Kind of series: Growth inhibition of human DMS273 cells. The class given is functional.
For series [21], the system named is HL-60. Kind of series: Cytotoxicity against human HL60 cells after 48 hrs by MTT assay. Format: functional, cell-based. Conditions: HL-60, 48 h.
The test system of the next series is MDA-MB-231. Kind of series: Growth inhibition of human MDA-MB-231 cells. Format: functional.
Series [22] deals with HL-60. As to the kind of experiment: Induction of apoptosis in human HL60 cells assessed as caspase 9 activation at 200 uM after 1 hrs by spectrophotometric analysis. The class given is functional, cell-based.
Series [23] relates to HL-60. Kind of series: Induction of apoptosis in human HL60 cells assessed as caspase 8 activation at 200 uM after 1 hrs by spectrophotometric analysis. The class given is functional, cell-based.
Series [24] concerns HL-60. As to the kind of experiment: Induction of apoptosis in human HL60 cells assessed as caspase 3/7 activation at 200 uM after 1 hrs by spectrophotometric analysis. Format: functional, cell-based.
Series [25] in a line: Drug metabolism in buffer at pH 8 after 24 hrs by HPLC analysis in presence of […]. Format: physicochemical. The conditions noted are these: pH 8, 24 h.

`NC(=O)NO` [HYDROXYUREA]: the Activity with Saccharomyces cerevisiae [1] was found to be 14.3 mm.
For the compound `COc1c(C)c2c(c(O)c1C/C=C(\C)CCC(=O)O)C(=O)OC2` [MYCOPHENOLIC ACID], in the series on Saccharomyces cerevisiae [2], the Activity worked out at 18.5 mm.
As for `CC(C)=CCCC(C)[C@@]12CC[C@]3(C)O[C@@H]3[C@@H]1O2` (relative stereo), the outcome with HL-60 [3] and in the series with Saccharomyces cerevisiae [4] was inactive.
A word on the GI50: it is the concentration at which growth is held to half of that of the control. The term IC50 denotes the point on the concentration scale where inhibition reaches its midpoint. Consider `C[C@H]1[C@@H](O)O[C@@H]2O[C@@]3(C)CC[C@H]4[C@H](C)CC[C@@H]1[C@@]24OO3` [ARTENIMOL], for which the concentration for 50% growth inhibition (GI50) in [5] was 2.04 µM; in the series on OVCAR-8 it was 4.17 µM; with OVCAR-5, 12.9 µM; with NCI-H23 it was 6.17 µM; in the series with NCI-H226, 15.8 µM; in the series with SNB-75, 11.7 µM. The GI50 is 3.16 µM in the series on LOX IMVI; 5.25 µM in the series on MKN-45; 3.98 µM in the series on MKN-74; 15.5 µM in the series on A549; 8.32 µM with SNB-78; 9.77 µM with SF-539. Also, the 50% growth inhibitory concentration (GI50) in the series on KM12 is 6.03 µM; in the series on St-4, 5.37 µM; in series [11], 5.37 µM; in the series with SF-268, 20.9 µM; with OVCAR-4 it was 12.9 µM; in the series with MCF7, 6.17 µM. The 50% growth inhibitory concentration (GI50) with HCT-15 is 0.912 µM; in the series with PC-3 it was 3.16 µM; with MKN-7, 3.02 µM; in the series on SF-295 it was 15.5 µM; with SK-OV-3, 10.2 µM; with HT-29 it was 4.37 µM. In addition, the GI50 with DU-145 was 18.6 µM; with OVCAR-3 it was 10.2 µM; in series [14], 3.89 µM; in the series on HCT-116 it was 1.35 µM; in the series on NCI-H460, 7.41 µM; in the series on U-251, 3.31 µM. Besides, the concentration for 50% growth inhibition (GI50) was 2.29 µM with NCI-H522; 4.57 µM with MKN-28; 7.08 µM with ACHN; 11.2 µM in [18]; 25.7 µM in [19]; 14.8 µM with HCC 2998. Further, the results for the GI50 in the series on DMS-114, in the series with DMS-273 and with MDA-MB-231 were 1.58 µM, 4.47 µM and 19.1 µM, respectively. Besides, the result in the series on HL-60 [6], with HL-60 [7] and with HL-60 [17] was Active. In addition, the “Ratio IC50” value in the series with HL-60 [8] was over 100. For the same compound, the Activity result with HL-60 [9], in the series with HL-60 [13] and in the series with HL-60 [20] was “Dose-dependent effect” throughout. Further, the result in the series on Saccharomyces cerevisiae [10] and in the series with Saccharomyces cerevisiae [15] was inactive. Also, the IC50 was 0.18 µM in the series with HL-60 [12], over 20 µM with HL-60 [16] and 0.26 µM in the series with HL-60 [21].
Take `CC(C)=CCC[C@@H](C)c1ccc(C)cc1`: the outcome in the series with HL-60 [22], with HL-60 [23] and in the series on HL-60 [24] was Active. Also, the values for the IC50 in the series on HL-60 [12], with HL-60 [16] and in the series with HL-60 [21] were 107 µM, 147 µM and 109 µM, respectively. For the same compound, the outcome in the series with Saccharomyces cerevisiae [15] was inactive. The Drug metabolism result in series [25] was “Not Active”.

The record behind these values is ChEMBL document CHEMBL2062379, “Cleavage mechanism and anti-tumor activity of 3,6-epidioxy-1,10-bisaboladiene isolated from edible wild plants” (Bioorg Med Chem, 2012).
